Measured values published in US20210290839A1, “SYSTEMS AND METHODS FOR DETECTING AND TREATING BACTERIAL BIOFILMS” (UNIVERSITY OF MARYLAND, COLLEGE PARK, priority 2017, published 2021).
Entries after “also recorded” stand apart in the source; their conditions may differ.

Tests used:
Type in all cases: cell-based
bacterial biofilm [1] = assay: End-point confocal microscopy quantification of bacterial biofilm thickness (FIG. 8); details: Combination: 100 μM autoinducer-2 analog isobutyl DPD plus 0.125V AC at 10 MHz offset by 0.125V DC, compared with either alone
Text: FIG. 8 is a bar graph showing the results of end-point confocal microscopy quantification of bacterial biofilm thickness for different treatment conditions, including combined electrical measuring and quorum sensing inhibitors (e.g., autoinducer-2 analog).
Although the preceding paragraphs address the bioelectric effect based on antibiotics, similar results can be obtained with other antimicrobial agents, such as quorum sensing inhibitors. In particular, FIG. 8 illustrates the results of experiments for different treatment conditions using autoinducer-2 analog. “LB control” represents an experiment where no electric field or autoinducer-2 analog was present. “E-field only” represents an experiment where an electrical signal of 0.125V AC at 10 MHz offset by 0.125V DC was applied to electrodes, without any autoinducer-2 analog present. “AI-2 analog” represents an experiment where autoinducer-2 analog is introduced (e.g., 100 μM autoinducer-2 analog isobutyl DPD) without any electrical signal applied to the electrodes. “Combination” represents an experiment where the electrical signal is applied to the electrodes and autoinducer-2 analog is introduced.

[2] = system: Escherichia coli (K12 W3110) biofilm; assay: Crystal violet absorbance assay biomass quantification (FIG. 6B); details: 24-hour treatment
Description: (§1) In particular, each experiment employed a flow system including a growth media reservoir, waste reservoir, and the detecting device connected using polymer tubing and luer connectors in between the reservoirs. Fluid was pumped through the flow system by a peristaltic pump. The detecting device and tubing were placed in an incubator maintained at 37° C., to mimic the temperature found in an inserted catheter. Escherichia coli (K12 W3110) were cultured in incubator at 37° C. and then diluted to an OD600 of 0.25. 1 ml of the diluted E. coli solution was then introduced into the catheter tube directly via syringe. […] Throughout the Growth phase, the system impedance (Z) is measured by the detecting device every 2 minutes, with the relative change being used to monitor biofilm formation. […]
CV absorbance staining was used to quantify the end-point biomass and to validate the impedance measurements of FIG. 6A. […] Optical absorbance at a wavelength (λ) of 590 nm was then measured, with increases corresponding to increased biomass. One-way analysis of variance (ANOVA) was used to determine statistical significance of the biomass quantification results.
FIG. 6B illustrates the results of the CV absorbance assay for various treatment conditions in experiments employing a detecting device fabricated according to the structure of FIGS. 3A-3B and employing a benchtop potentiostat as the voltage source.

bacterial biofilm [3] = assay: Real-time fractional relative change of impedance during treatment with threshold-triggered 100 mV signal (FIG. 7); details: 24 hour treatment
Description: FIG. 7 illustrates the fractional relative change of impedance measurements in experiments similar to that of FIG. 6B. In particular, treatment is performed by applying a 100 mV signal across the same electrodes used for impedance detection, in combination with near MIC levels of antibiotic, thereby generating a second bioelectric effect. This bioelectric effect was applied at regular intervals for only ˜1/7 of the total 24 hour treatment period.
The “E-field” curve represents an experiment where an intervallic 100 mV AC electrical signal (e.g., at 1 MHz) in addition to the periodic 5 mV AC detection voltage was applied to the electrodes, but without any antibiotic present. The “BE” curve represents an experiment where an intervallic 100 mV AC electrical signal (e.g., at 1 MHz) in addition to the periodic 5 mV AC detection voltage was applied to the electrodes, and with 10 μg/mL of gentamicin present. The decision to apply the 100 mV AC signal in both experiments was made by logic using the impedance data gathered in the sensing mode (i.e., using the 5 mV AC detection voltage). If the average sensing mode data point was less than a predefined threshold, then the larger 100 mV electric field treatment was applied; otherwise, the system continued in sensing mode with the periodic application of the 5 mV AC detection voltage. […]

[4] = system: Escherichia coli (K12 W3110) biofilm; assay: Real-time impedance sensing of biofilm during 24-hour treatment period (FIG. 6A); details: BE: gentamicin 10 μg/ml plus sensing, AC 50 mV at 100 Hz, 30 s of every 150 s; 24-hour treatment of 24-hour biofilm; increase corresponds to removal of biofilm
Description: as §1, with “syringe. The bacteria were allowed to attach to the interior surface under static (no flow) conditions for 2 hours (referred to as the Seeding phase).” for “syringe.”
As noted above, the sensing voltage applied to the electrodes of the detecting device 300 can also synergistically enhances any antimicrobial agent present to deliver a bioelectric effect. FIG. 6A illustrates the measured impedance characteristics in experiments employing a detecting device fabricated according to the structure of FIGS. 3A-3B and employing a benchtop potentiostat as the voltage source. […]

Molecule	reduction of biofilm thickness (bacterial biofilm [1])	end-point biofilm biomass (CV absorbance at 590 nm) ([2]; Anti-only: antibiotic without impedance sensing)	end-point biofilm biomass (CV absorbance at 590 nm) ([2]; BE: sensing + antibiotic (gentamicin 10 μg/ml))	change in 100 Hz impedance at the end of treatment phase (bacterial biofilm [3]; "Antibiotic": 10 μg/mL gentamicin with periodic 5 mV AC detection voltage)	change in 100 Hz impedance at the end of treatment phase (bacterial biofilm [3]; "BE": 10 μg/mL gentamicin with intervallic 100 mV AC (1 MHz) plus periodic 5 mV AC detection voltage)	impedance change during the treatment period [4]
CC(C)CC(=O)C(=O)C(O)CO (stereo not drawn) [autoinducer-2 analog, isobutyl DPD]	substantially improved efficacy in reducing biofilm thickness over either alone					
gentamicin		significantly higher biomass of biofilm	biomass similar to a bacteria-free control	increase in 100 Hz impedance; also recorded: as effective in treating the biofilm	increase in 100 Hz impedance	~20%
